Assay results published in article PMC6979384, “Characterization of the plant homeodomain (PHD) reader family for their histone tail interactions” (Epigenetics & Chromatin, 2020).

Assays:
Test in all cases: Histone peptide microarray
Format in all cases: binding, human
AIRE (PP) = conditions: GST-tagged AIRE (PP); histone peptide array; arrays performed twice, n of 4
In short: (§1)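 Purified PHD finger domains fused to GST are screened against 293 synthetic histone peptides bearing one or several post-translational modifications. The protein is used at 0.5 μM, and the signal from four replicate arrays is averaged, with standard deviation given.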

BAZ2B = conditions: GST-tagged BAZ2B; histone peptide array; arrays performed twice, n of 4
In short: as §1

BPTF (PB) = conditions: GST-tagged BPTF (PB = PHD + Bromodomain); histone peptide array; arrays performed twice, n of 4
In short: as §1

CHD4 (PPCC) = conditions: GST-tagged CHD4 (PPCC = Dual PHD + Dual Chromodomain); histone peptide array; arrays performed twice, n of 4
In short: as §1

CHD5 (PCC) = conditions: GST-tagged CHD5 (PCC = PHD + Dual Chromodomain); histone peptide array; arrays performed twice, n of 4
In short: as §1

CHD5 (PPCC) = conditions: GST-tagged CHD5 (PPCC = Dual PHD + Dual Chromodomain); histone peptide array; arrays performed twice, n of 4
In short: as §1

DIDO1 = conditions: GST-tagged DIDO1; histone peptide array; arrays performed twice, n of 4
In short: as §1

DPF2 (PPC2W2) = conditions: GST-tagged DPF2 (PPC2W2 = Dual PHD + C2W2-type Zn-finger); histone peptide array; arrays performed twice, n of 4
In short: as §1

ING1 = conditions: GST-tagged ING1; histone peptide array; arrays performed twice, n of 4
In short: as §1

ING2 = conditions: GST-tagged ING2; histone peptide array; arrays performed twice, n of 4
In short: as §1

ING3 = conditions: GST-tagged ING3; histone peptide array; arrays performed twice, n of 4
In short: as §1

ING4 = conditions: GST-tagged ING4; histone peptide array; arrays performed twice, n of 4
In short: as §1

ING5 = conditions: GST-tagged ING5; histone peptide array; arrays performed twice, n of 4
In short: as §1

KDM4C (TTP) = conditions: GST-tagged KDM4C (TTP = Tandem Tudor domain + PHD); histone peptide array; arrays performed twice, n of 4
In short: as §1

KDM5A (1) = conditions: GST-tagged KDM5A (1); histone peptide array; arrays performed twice, n of 4
In short: as §1

KDM5A (3) = conditions: GST-tagged KDM5A (3); histone peptide array; arrays performed twice, n of 4
In short: as §1

KDM5B (1) = conditions: GST-tagged KDM5B (1); histone peptide array; arrays performed twice, n of 4
In short: as §1

KDM5B (3) = conditions: GST-tagged KDM5B (3); histone peptide array; arrays performed twice, n of 4
In short: as §1

KDM7A = conditions: GST-tagged KDM7A; histone peptide array; arrays performed twice, n of 4
In short: as §1

MLL5 = conditions: GST-tagged MLL5; histone peptide array; arrays performed twice, n of 4
In short: as §1

MORC3 (CW) = conditions: GST-tagged MORC3 (CW = CW-type Zn-finger); histone peptide array; arrays performed twice, n of 4
In short: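 Each reader, produced as a GST fusion and purified, was tested at 0.5 μM on synthetic histone peptides (293 in total) carrying single or combinatorial marks. Intensities averaged over four replicates.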

PHF13 = conditions: GST-tagged PHF13; histone peptide array; arrays performed twice, n of 4
In short: as §1

PHF21A = conditions: GST-tagged PHF21A; histone peptide array; arrays performed twice, n of 4
In short: as §1

PHF23 = conditions: GST-tagged PHF23; histone peptide array; arrays performed twice, n of 4
In short: as §1

PHF2 = conditions: GST-tagged PHF2; histone peptide array; arrays performed twice, n of 4
In short: as §1

PHF8 = conditions: GST-tagged PHF8; histone peptide array; arrays performed twice, n of 4
In short: as §1

PHRF1 (RP) = conditions: GST-tagged PHRF1 (RP); histone peptide array; arrays performed twice, n of 4
In short: as §1

RAG2 = conditions: GST-tagged RAG2; histone peptide array; arrays performed twice, n of 4
In short: as §1

SP140L = conditions: GST-tagged SP140L; histone peptide array; arrays performed twice, n of 4
In short: as §1

TAF3 = conditions: GST-tagged TAF3; histone peptide array; arrays performed twice, n of 4
In short: as §1

TRIM66 (PB) = conditions: GST-tagged TRIM66 (PB = PHD + Bromodomain); histone peptide array; arrays performed twice, n of 4
In short: as §1

Substance | Array Heatmap signal, AIRE (PP) (AIRE (PP)) | Array Heatmap signal, BAZ2B (BAZ2B) | Array Heatmap signal, BPTF (PB) (BPTF (PB)) | Array Heatmap signal, CHD4 (PPCC) (CHD4 (PPCC)) | Array Heatmap signal, CHD5 (PCC) (CHD5 (PCC)) | Array Heatmap signal, CHD5 (PPCC) (CHD5 (PPCC)) | Array Heatmap signal, DIDO1 (DIDO1) | Array Heatmap signal, DPF2 (PPC2W2) (DPF2 (PPC2W2)) | Array Heatmap signal, ING1 (ING1) | Array Heatmap signal, ING2 (ING2) | Array Heatmap signal, ING3 (ING3) | Array Heatmap signal, ING4 (ING4) | Array Heatmap signal, ING5 (ING5) | Array Heatmap signal, KDM4C (TTP) (KDM4C (TTP)) | Array Heatmap signal, KDM5A (1) (KDM5A (1)) | Array Heatmap signal, KDM5A (3) (KDM5A (3)) | Array Heatmap signal, KDM5B (1) (KDM5B (1)) | Array Heatmap signal, KDM5B (3) (KDM5B (3)) | Array Heatmap signal, KDM7A (KDM7A) | Array Heatmap signal, MLL5 (MLL5) | further results
H3R2me1 + K4me3: H3 1-20 | 0.5251 | 0.4816 | 0.4045 | 0.5344 | 0.789 | 0.5498 | 0.7532 | 0.645 | 0.6223 | 0.6934 | 0.5249 | 0.4768 | 0.3615 | 0.6626 | 0.4891 | 0.7567 | 0.7101 | 0.6417 | 0.6442 | 0.6848 | Array Heatmap signal, MORC3 (CW) (MORC3 (CW)): 0.559; Array Heatmap signal, PHF13 (PHF13): 0.6851; Array Heatmap signal, PHF21A (PHF21A): 0.4726; Array Heatmap signal, PHF23 (PHF23): 0.6587; Array Heatmap signal, PHF2 (PHF2): 0.6232; Array Heatmap signal, PHF8 (PHF8): 0.5511; Array Heatmap signal, PHRF1 (RP) (PHRF1 (RP)): 0.4461; Array Heatmap signal, RAG2 (RAG2): 0.5131; Array Heatmap signal, SP140L (SP140L): 0.3558; Array Heatmap signal, TAF3 (TAF3): 0.4375; Array Heatmap signal, TRIM66 (PB) (TRIM66 (PB)): 0.573
H3R2me2a + K4ac + K9ac + K14ac + K18ac: H3 1-20 | 0.481 | 0.5184 | 0.3551 | 0.5562 | 0.8359 | 0.5571 | 0.6585 | 0.6307 | 0.488 | 0.5976 | 0.5009 | 0.4485 | 0.3422 | 0.4988 | 0.4917 | 0.405 | 0.6453 | 0.4924 | 0.4047 | 0.5333 | Array Heatmap signal, MORC3 (CW) (MORC3 (CW)): 0.3697; Array Heatmap signal, PHF13 (PHF13): 0.6029; Array Heatmap signal, PHF21A (PHF21A): 0.4733; Array Heatmap signal, PHF23 (PHF23): 0.5405; Array Heatmap signal, PHF2 (PHF2): 0.4783; Array Heatmap signal, PHF8 (PHF8): 0.3535; Array Heatmap signal, PHRF1 (RP) (PHRF1 (RP)): 0.4078; Array Heatmap signal, RAG2 (RAG2): 0.259; Array Heatmap signal, SP140L (SP140L): 0.3281; Array Heatmap signal, TAF3 (TAF3): 0.2624; Array Heatmap signal, TRIM66 (PB) (TRIM66 (PB)): 0.5934
